Earlier results as cited in patent US6471968B1, “Multifunctional nanodevice platform” (Regents of the University of Michigan, priority 2000, dated 2002).

System: solid tumor models
Settings: solid tumor models for which cisplatin has no effect

In the case of `N.N.[Cl][Pt][Cl]` [cisplatin], the “in vivo activity in solid tumor models” value is listed as “no effect”.
